Assay results as given in the CheMixHub ionic liquid set.

Assay: xn = mol fraction of the nth substance listed
Conditions: 101 kPa

Cc1ncc(C[n+]2csc(CCO)c2C)c(N)n1.Cl.[Cl-] + CCCCCCCCCCCCOS(=O)(=O)[O-].[Na+] + O
electrical conductivity [S/m]
Conditions	288.15 K	298.15 K
x2 = 0, x1 = 1.8e-07	0.00237	0.00291
x2 = 0, x1 = 9e-07	0.0045	0.00489
x2 = 0, x1 = 1.8e-06	0.00578	0.00788
x2 = 7.35e-06, x1 = 1.8e-07	0.00538	0.00635
x2 = 7.35e-06, x1 = 9e-07	0.0077	0.00839
x2 = 7.35e-06, x1 = 1.8e-06	0.00928	0.0119
x2 = 1.463e-05, x1 = 1.8e-07	0.00837	0.0099
x2 = 1.463e-05, x1 = 9e-07	0.0109	0.0118
x2 = 1.463e-05, x1 = 1.8e-06	0.0127	0.0158
x2 = 2.18e-05, x1 = 1.8e-07	0.0112	0.0131
x2 = 2.18e-05, x1 = 9e-07	0.0139	0.0152
x2 = 2.18e-05, x1 = 1.8e-06	0.016	0.0196
x2 = 2.901e-05, x1 = 1.8e-07	0.0139	0.0163
x2 = 2.901e-05, x1 = 9e-07	0.0169	0.0186
x2 = 2.901e-05, x1 = 1.8e-06	0.0192	0.0233
x2 = 3.604e-05, x1 = 1.8e-07	0.0167	0.0196
x2 = 3.604e-05, x1 = 9e-07	0.0197	0.0219
x2 = 3.604e-05, x1 = 1.8e-06	0.0224	0.027
x2 = 4.307e-05, x1 = 1.8e-07	0.0194	0.0228
x2 = 4.307e-05, x1 = 9e-07	0.0225	0.0251
x2 = 4.307e-05, x1 = 1.8e-06	0.0255	0.0308
x2 = 4.991e-05, x1 = 1.8e-07	0.0221	0.026
x2 = 4.991e-05, x1 = 9e-07	0.0253	0.0282
x2 = 4.991e-05, x1 = 1.8e-06	0.0285	0.0347
x2 = 5.676e-05, x1 = 1.8e-07	0.0248	0.0292
x2 = 5.676e-05, x1 = 9e-07	0.0281	0.0312
x2 = 5.676e-05, x1 = 1.8e-06	0.0314	0.0384
x2 = 6.361e-05, x1 = 1.8e-07	0.0274	0.0323
x2 = 6.361e-05, x1 = 9e-07	0.0307	0.0342
x2 = 6.361e-05, x1 = 1.8e-06	0.0342	0.0421
x2 = 7.027e-05, x1 = 1.8e-07	0.0299	0.0354
x2 = 7.027e-05, x1 = 9e-07	0.0332	0.0372
x2 = 7.028e-05, x1 = 1.8e-06	0.037	0.0457
x2 = 7.694e-05, x1 = 1.8e-07	0.0324	0.0385
x2 = 7.694e-05, x1 = 9e-07	0.0357	0.0402
x2 = 7.694e-05, x1 = 1.8e-06	0.0397	0.0492
x2 = 8.361e-05, x1 = 1.8e-07	0.0349	0.0414
x2 = 8.361e-05, x1 = 9e-07	0.0382	0.0431
x2 = 8.361e-05, x1 = 1.8e-06	0.0425	0.0526
x2 = 9.009e-05, x1 = 1.8e-07	0.0374	0.0443
x2 = 9.009e-05, x1 = 9e-07	0.0407	0.046
x2 = 9.009e-05, x1 = 1.8e-06	0.0452	0.0557
x2 = 9.658e-05, x1 = 1.8e-07	0.0398	0.0471
x2 = 9.658e-05, x1 = 9e-07	0.0431	0.0489
x2 = 9.658e-05, x1 = 1.8e-06	0.0478	0.0587
x2 = 0.0001031, x1 = 1.8e-07	0.0422	0.0498
x2 = 0.0001031, x1 = 9e-07	0.0456	0.0518
x2 = 0.0001031, x1 = 1.8e-06	0.0503	0.0616
x2 = 0.0001094, x1 = 1.8e-07	0.0446	0.0524
x2 = 0.0001094, x1 = 9e-07	0.048	0.0545
x2 = 0.0001094, x1 = 1.8e-06	0.0522	0.0643
x2 = 0.0001157, x1 = 1.8e-07	0.0465	0.0549
x2 = 0.0001157, x1 = 9e-07	0.0502	0.0571
x2 = 0.0001157, x1 = 1.8e-06	0.0539	0.0668
x2 = 0.000122, x1 = 1.8e-07	0.0486	0.0574
x2 = 0.000122, x1 = 9e-07	0.0523	0.0595
x2 = 0.000122, x1 = 1.8e-06	0.0555	0.0691
x2 = 0.0001281, x1 = 1.8e-07	0.0508	0.0597
x2 = 0.0001281, x1 = 9e-07	0.0541	0.0615
x2 = 0.0001281, x1 = 1.8e-06	0.0571	0.0712
x2 = 0.0001342, x1 = 1.8e-07	0.0527	0.0619
x2 = 0.0001342, x1 = 9e-07	0.0558	0.0635
x2 = 0.0001342, x1 = 1.8e-06	0.0587	0.0732
x2 = 0.0001404, x1 = 1.8e-07	0.0545	0.0639
x2 = 0.0001404, x1 = 9e-07	0.0573	0.0653
x2 = 0.0001404, x1 = 1.8e-06	0.0601	0.0751
x2 = 0.0001465, x1 = 1.8e-07	0.0561	0.0656
x2 = 0.0001465, x1 = 9e-07	0.0587	0.0669
x2 = 0.0001465, x1 = 1.8e-06	0.0614	0.077
x2 = 0.0001524, x1 = 1.8e-07	0.0577	0.0672
x2 = 0.0001524, x1 = 9e-07	0.0599	0.0685
x2 = 0.0001524, x1 = 1.8e-06	0.0625	0.0789
x2 = 0.0001584, x1 = 1.8e-07	0.059	0.0687
x2 = 0.0001584, x1 = 9e-07	0.0611	0.0699
x2 = 0.0001584, x1 = 1.8e-06	0.0636	0.0807
x2 = 0.0001641, x1 = 1.8e-07	0.0602	0.07
x2 = 0.0001641, x1 = 9e-07	0.0622	0.0712
x2 = 0.0001641, x1 = 1.8e-06	0.0647	0.0825
x2 = 0.0001699, x1 = 1.8e-07	0.0613	0.0712
x2 = 0.0001699, x1 = 9e-07	0.0633	0.0724
x2 = 0.0001699, x1 = 1.8e-06	0.0657	0.0842
x2 = 0.0001757, x1 = 1.8e-07	0.0622	0.0724
x2 = 0.0001757, x1 = 9e-07	0.0643	0.0736
x2 = 0.0001757, x1 = 1.8e-06	0.0667	0.0857
x2 = 0.0001814, x1 = 1.8e-07	0.0632	0.0735
x2 = 0.0001814, x1 = 9e-07	0.0654	0.0748
x2 = 0.0001814, x1 = 1.8e-06	0.0677	0.0872
x2 = 0.000187, x1 = 1.8e-07	0.0641	0.0745
x2 = 0.000187, x1 = 9e-07	0.0664	0.076
x2 = 0.000187, x1 = 1.8e-06	0.0687	0.0885
x2 = 0.0001928, x1 = 1.8e-07	0.0649	0.0755
x2 = 0.0001928, x1 = 9e-07	0.0673	0.0771
x2 = 0.0001928, x1 = 1.8e-06	0.0697	0.0898
x2 = 0.0001982, x1 = 1.8e-07	0.0658	0.0765
x2 = 0.0001982, x1 = 9e-07	0.0683	0.0782
x2 = 0.0001982, x1 = 1.8e-06	0.0707	0.0911
x2 = 0.0002038, x1 = 1.8e-07	0.0666	0.0775
x2 = 0.0002038, x1 = 9e-07	0.0692	0.0794
x2 = 0.0002038, x1 = 1.8e-06	0.0716	0.0924
x2 = 0.0002092, x1 = 1.8e-07	0.0673	0.0784
x2 = 0.0002092, x1 = 9e-07	0.0702	0.0805
x2 = 0.0002092, x1 = 1.8e-06	0.0725	0.0937
x2 = 0.0002147, x1 = 1.8e-07	0.0681	0.0793
x2 = 0.0002148, x1 = 9e-07	0.0711	0.0816
x2 = 0.0002148, x1 = 1.8e-06	0.0734	0.0949
x2 = 0.00022, x1 = 1.8e-07	0.0689	0.0802
x2 = 0.00022, x1 = 9e-07	0.072	0.0826
x2 = 0.00022, x1 = 1.8e-06	0.0743	0.0961
x2 = 0.0002254, x1 = 1.8e-07	0.0696	0.081
x2 = 0.0002254, x1 = 9e-07	0.0729	0.0837
x2 = 0.0002254, x1 = 1.8e-06	0.0752	0.0973
x2 = 0.0002306, x1 = 1.8e-07	0.0703	0.0819
x2 = 0.0002306, x1 = 9e-07	0.0739	0.0848
x2 = 0.0002306, x1 = 1.8e-06	0.0761	0.0983
x2 = 0.0002358, x1 = 1.8e-07	0.071	0.0827
x2 = 0.0002358, x1 = 9e-07	0.0747	0.0858
x2 = 0.0002358, x1 = 1.8e-06	0.077	0.0993
x2 = 0.0002411, x1 = 1.8e-07	0.0717	0.0836
x2 = 0.0002411, x1 = 9e-07	0.0756	0.0869
x2 = 0.0002411, x1 = 1.8e-06	0.0778	0.1
